“And” between values parts separate entries of the source, which are not always exact repeats. Equal values may be shown once. Inconclusive results and toxic doses are left out.
System: L1210 leukemia ip in BDF1 mice, survival T/C
Assay: NCI In Vivo Anticancer Drug Screen. Data for tumor model L1210 Leukemia (intraperitoneal) in B6D2F1 (BDF1) mice
Settings: endpoint: mean survival time, higher = longer survival
Summary of the method: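 Tumor was transplanted into mice, which were then dosed with test compound or vehicle alone. Survival was recorded for each group, and the treated figure was expressed relative to the control figure.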

[1] = dose: 100.0 mg/kg/injection, schedule: Q01DX001 (ip), vehicle: carboxymethylcellulose (CMC)
[2] = dose: 200.0 mg/kg/injection, schedule: Q01DX001 (ip), vehicle: carboxymethylcellulose (CMC)
[3] = dose: 400.0 mg/kg/injection, schedule: Q01DX001 (ip), vehicle: carboxymethylcellulose (CMC)
[4] = dose: 25.0 mg/kg/injection, schedule: Q01DX009 (ip), vehicle: saline
[5] = dose: 50.0 mg/kg/injection, schedule: Q01DX009 (ip), vehicle: saline
[6] = dose: 100.0 mg/kg/injection, schedule: Q01DX009 (ip), vehicle: saline
[7] = dose: 100.0 mg/kg/injection, schedule: Q04DX003 (ip), vehicle: saline
[8] = dose: 100.0 mg/kg/injection, schedule: Q04DX003 (ip), vehicle: Klucel (hydroxypropylcellulose) (HPC)
[9] = dose: 200.0 mg/kg/injection, schedule: Q04DX003 (ip), vehicle: Klucel (hydroxypropylcellulose) (HPC)
[10] = dose: 400.0 mg/kg/injection, schedule: Q04DX003 (ip), vehicle: Klucel (hydroxypropylcellulose) (HPC)
[11] = dose: 400.0 mg/kg/injection, schedule: Q04DX003 (ip), vehicle: saline
[12] = dose: 100.0 mg/kg/injection, schedule: Q04DX003 (ip), vehicle: saline sonified

Q: What does the source list for `CCCCNC(=O)Nc1cccc(C(F)(F)F)c1`?
A: T/C (dose: 50.0 mg/kg/injection, schedule: Q01DX001 (sc), vehicle: carboxymethylcellulose (CMC)): 106 % of control; T/C (dose: 100.0 mg/kg/injection, schedule: Q01DX001 (sc), vehicle: carboxymethylcellulose (CMC)): 104 % of control; T/C (dose: 200.0 mg/kg/injection, schedule: Q01DX001 (sc), vehicle: carboxymethylcellulose (CMC)): 104 % of control; T/C (dose: 400.0 mg/kg/injection, schedule: Q01DX001 (sc), vehicle: carboxymethylcellulose (CMC)): 101 % of control

Q: How did the T/C (dose: 50.0 mg/kg/injection, schedule: Q01DX009 (ip), vehicle: saline with Tween-80) turn out when `O=C(O)c1c(I)c(I)c(I)c(I)c1C(=O)c1ccccc1` was run?
A: 103 % of control

Q: What about the T/C (dose: 100.0 mg/kg/injection, schedule: Q01DX009 (ip), vehicle: saline with Tween-80) of the same compound?
A: 115 % of control

Q: And the T/C (dose: 200.0 mg/kg/injection, schedule: Q01DX009 (ip), vehicle: saline with Tween-80)?
A: 112 % of control

Q: For `Cc1nc2ccccc2nc1CBr`, which T/C (dose: 3.2 mg/kg/injection, schedule: Q01DX009 (ip), vehicle: Klucel (hydroxypropylcellulose) (HPC)) is on record?
A: 103 % of control

Q: What about the T/C (dose: 6.3 mg/kg/injection, schedule: Q01DX009 (ip), vehicle: Klucel (hydroxypropylcellulose) (HPC)) of the same compound?
A: 100 % of control

Q: And the T/C (dose: 12.5 mg/kg/injection, schedule: Q01DX009 (ip), vehicle: Klucel (hydroxypropylcellulose) (HPC))?
A: 105 % of control

Q: What about the T/C (dose: 12.5 mg/kg/injection, schedule: Q04DX003 (ip), vehicle: saline with Tween-80) of the same compound?
A: 98 % of control

Q: And the T/C (dose: 25.0 mg/kg/injection, schedule: Q01DX009 (ip), vehicle: Klucel (hydroxypropylcellulose) (HPC))?
A: 97 % of control

Q: What about the T/C (dose: 25.0 mg/kg/injection, schedule: Q04DX003 (ip), vehicle: saline with Tween-80) of the same compound?
A: 89 % of control

Q: And the T/C (dose: 50.0 mg/kg/injection, schedule: Q01DX009 (ip), vehicle: Klucel (hydroxypropylcellulose) (HPC))?
A: 102 % of control

Q: What about the T/C (dose: 50.0 mg/kg/injection, schedule: Q04DX003 (ip), vehicle: saline with Tween-80) of the same compound?
A: 98 % of control

Q: Which results are given for `COc1cc2cc3c4cc(OC)c(OC)cc4cc[n+]3c(/C=C/c3cccc(O)c3)c2cc1OC`?
A: T/C (dose: 25.0 mg/kg/injection, schedule: Q04DX002 (ip), vehicle: carboxymethylcellulose (CMC)): 97 % of control and 108 % of control; T/C (dose: 50.0 mg/kg/injection, schedule: Q04DX002 (ip), vehicle: carboxymethylcellulose (CMC)): 101 % of control; T/C [1]: 102 % of control and 110 % of control; T/C [2]: 110 % of control and 119 % of control; T/C [3]: 98 % of control and 114 % of control; T/C (dose: 400.0 mg/kg/injection, schedule: Q04DX002 (ip), vehicle: carboxymethylcellulose (CMC)): 105 % of control and 115 % of control

Q: `CNC/C=C/CNC` was tested. Which T/C [4] did it give?
A: 97 % of control

Q: What about the T/C (dose: 25.0 mg/kg/injection, schedule: Q04DX003 (ip), vehicle: saline) of the same compound?
A: 102 % of control

Q: What about the T/C [5] of the same compound?
A: 90 % of control

Q: What about the T/C (dose: 50.0 mg/kg/injection, schedule: Q04DX003 (ip), vehicle: saline) of the same compound?
A: 93 % of control

Q: And the T/C [6]?
A: 98 % of control

Q: What about the T/C [7] of the same compound?
A: 98 % of control and 99 % of control

Q: For `CC(C)(O)C[N+](=O)[O-]`, which T/C [5] is on record?
A: 88 % of control

Q: What about the T/C [6] of the same compound?
A: 88 % of control

Q: What about the T/C (dose: 200.0 mg/kg/injection, schedule: Q01DX009 (ip), vehicle: saline) of the same compound?
A: 88 % of control

Q: With `C=C1CC(CCCCCC2CC(=C)C(=O)O2)OC1=O` (stereo not given) as the compound, how does the T/C (dose: 12.5 mg/kg/injection, schedule: Q04DX002 (ip), vehicle: saline) read?
A: 94 % of control

Q: And the T/C (dose: 25.0 mg/kg/injection, schedule: Q04DX002 (ip), vehicle: saline)?
A: 94 % of control

Q: What about the T/C (dose: 50.0 mg/kg/injection, schedule: Q04DX002 (ip), vehicle: saline) of the same compound?
A: 102 % of control

Q: Which results are given for `C#CCn1cnc2c(=S)nc[nH]c21`?
A: T/C (dose: 10.0 mg/kg/injection, schedule: Q01DX009 (ip), vehicle: saline): 104 % of control; T/C (dose: 15.0 mg/kg/injection, schedule: Q04DX003 (ip), vehicle: saline): 103 % of control; T/C [4]: 114 % of control; T/C (dose: 30.0 mg/kg/injection, schedule: Q04DX003 (ip), vehicle: saline): 111 % of control; T/C (dose: 52.0 mg/kg/injection, schedule: Q04DX003 (ip), vehicle: Klucel (hydroxypropylcellulose) (HPC)): 110 % of control; T/C (dose: 60.0 mg/kg/injection, schedule: Q04DX003 (ip), vehicle: saline): 111 % of control; T/C (dose: 78.0 mg/kg/injection, schedule: Q04DX003 (ip), vehicle: Klucel (hydroxypropylcellulose) (HPC)): 115 % of control; T/C (dose: 90.0 mg/kg/injection, schedule: Q01DX009 (ip), vehicle: saline): 119 % of control; T/C (dose: 100.0 mg/kg/injection, schedule: Q01DX001 (ip), vehicle: other): 104 % of control; T/C [8]: 113 % of control; T/C (dose: 118.0 mg/kg/injection, schedule: Q04DX003 (ip), vehicle: Klucel (hydroxypropylcellulose) (HPC)): 115 % of control; T/C (dose: 175.0 mg/kg/injection, schedule: Q01DX009 (ip), vehicle: saline): 93 % of control; T/C (dose: 177.0 mg/kg/injection, schedule: Q01DX001 (ip), vehicle: Klucel (hydroxypropylcellulose) (HPC)): 108 % of control; T/C (dose: 177.0 mg/kg/injection, schedule: Q04DX003 (ip), vehicle: Klucel (hydroxypropylcellulose) (HPC)): 155 % of control; T/C (dose: 177.0 mg/kg/injection, schedule: Q04DX003 (ip), vehicle: saline): 150 % of control; T/C (dose: 200.0 mg/kg/injection, schedule: Q01DX001 (ip), vehicle: other): 121 % of control; T/C [9]: 124 % of control; T/C (dose: 266.0 mg/kg/injection, schedule: Q04DX003 (ip), vehicle: Klucel (hydroxypropylcellulose) (HPC)): 162 % of control; T/C (dose: 266.0 mg/kg/injection, schedule: Q04DX003 (ip), vehicle: saline): 116 % of control; T/C [10]: 157 % of control; T/C [11]: 114 % of control; T/C (dose: 600.0 mg/kg/injection, schedule: Q01DX001 (ip), vehicle: Klucel (hydroxypropylcellulose) (HPC)): 152 % of control; T/C (dose: 600.0 mg/kg/injection, schedule: Q01DX001 (ip), vehicle: other): 156 % of control; T/C (dose: 600.0 mg/kg/injection, schedule: Q04DX003 (ip), vehicle: saline): 112 % of control

Q: Which T/C (dose: 50.0 mg/kg/injection, schedule: Q01DX001 (ip), vehicle: carboxymethylcellulose (CMC)) does the source give for `CC1([N+](=O)[O-])COP(=O)(NCc2cccnc2)OC1` (stereo not given) here?
A: 103 % of control

Q: And the T/C [1]?
A: 95 % of control

Q: And the T/C [2]?
A: 113 % of control

Q: And the T/C [3]?
A: 95 % of control

Q: What does the source list for `c1ccc(Cc2ccccn2)nc1`?
A: T/C [12]: 110 % of control; T/C (dose: 200.0 mg/kg/injection, schedule: Q04DX003 (ip), vehicle: saline sonified): 104 % of control; T/C (dose: 400.0 mg/kg/injection, schedule: Q04DX003 (ip), vehicle: saline sonified): 104 % of control

Q: Which results are given for `N/C(=N\O)c1c(Br)n(C2OC(CO)C(O)C2O)c2ncnc(N)c12` (stereo not given)?
A: T/C (dose: 100.0 mg/kg/injection, schedule: Q01DX001 (ip), vehicle: saline): 98 % of control; T/C (dose: 200.0 mg/kg/injection, schedule: Q01DX001 (ip), vehicle: saline): 97 % of control; T/C (dose: 400.0 mg/kg/injection, schedule: Q01DX001 (ip), vehicle: saline): 106 % of control

Q: Which results are given for `CCCCNC(C)(C)C(SSC(c1cccs1)C(C)(C)NCCCC)c1cccs1` (stereo not given)?
A: T/C (dose: 25.0 mg/kg/injection, schedule: Q01DX009 (ip), vehicle: saline sonified): 100 % of control; T/C (dose: 50.0 mg/kg/injection, schedule: Q01DX009 (ip), vehicle: saline sonified): 100 % of control; T/C (dose: 100.0 mg/kg/injection, schedule: Q01DX009 (ip), vehicle: saline sonified): 96 % of control; T/C [12]: 90 % of control

Q: Which T/C [7] does the source give for `COc1ccc2c(C(=O)CCC(=O)O)cccc2c1` here?
A: 104 % of control

Q: What about the T/C (dose: 200.0 mg/kg/injection, schedule: Q04DX003 (ip), vehicle: saline) of the same compound?
A: 95 % of control

Q: And the T/C [11]?
A: 106 % of control

Q: `Cc1cccc[c]1[Sb](=[O])([OH])[OH]` was tested. Which T/C (dose: 5.0 mg/kg/injection, schedule: Q01DX001 (ip), vehicle: saline) did it give?
A: 94 % of control

Q: What about the T/C (dose: 10.0 mg/kg/injection, schedule: Q01DX001 (ip), vehicle: saline) of the same compound?
A: 97 % of control

Q: And the T/C (dose: 20.0 mg/kg/injection, schedule: Q01DX001 (ip), vehicle: saline)?
A: 97 % of control

Q: What about the T/C (dose: 40.0 mg/kg/injection, schedule: Q01DX001 (ip), vehicle: saline) of the same compound?
A: 103 % of control

Q: What about the T/C (dose: 80.0 mg/kg/injection, schedule: Q01DX001 (ip), vehicle: saline) of the same compound?
A: 105 % of control

Q: `CN(C)/C=N/Nc1ccc([N+](=O)[O-])cc1[N+](=O)[O-]` was tested. Which T/C (dose: 100.0 mg/kg/injection, schedule: Q01DX009 (ip), vehicle: Klucel (hydroxypropylcellulose) (HPC)) did it give?
A: 94 % of control

Q: What about the T/C [8] of the same compound?
A: 102 % of control

Q: What about the T/C (dose: 200.0 mg/kg/injection, schedule: Q01DX009 (ip), vehicle: Klucel (hydroxypropylcellulose) (HPC)) of the same compound?
A: 94 % of control

Q: What about the T/C [9] of the same compound?
A: 97 % of control

Q: What about the T/C (dose: 400.0 mg/kg/injection, schedule: Q01DX009 (ip), vehicle: Klucel (hydroxypropylcellulose) (HPC)) of the same compound?
A: 96 % of control

Q: And the T/C [10]?
A: 97 % of control

Source: PubChem BioAssay AID248 (DTP/NCI, 2004)
